{"source": "patent US10987342B2", "about": "“Methods and compositions for transdermal delivery of a non-sedative amount of dexmedetomidine” (Teikoku Pharma USA, Inc., priority 2013, dated 2021)", "note": "Where two headings read alike, the source gives them in different places."}
{"smiles": "Cc1cccc([C@H](C)c2cnc[nH]2)c1C", "note": "[dexmedetomidine, Dexmedetomidine]", "values": [{"measurement": "solubility of dexmedetomidine", "setting": "in Duro-Tak 87-2979", "result": "less than 2%"}, {"measurement": "solubility of dexmedetomidine", "setting": "in Duro-Tak 387/87-2353 (acid functionalized acrylate polymer)", "result": "10-15%"}, {"measurement": "solubility of dexmedetomidine", "setting": "in hydroxyl functionalized acrylate polymer", "result": "less than 1%"}, {"measurement": "solubility of dexmedetomidine", "setting": "in levulinic acid", "result": "~60", "unit": "%"}, {"measurement": "solubility of dexmedetomidine", "setting": "in oleic acid", "result": "~40", "unit": "%"}]}
